Test [1] addresses Cyclin-dependent kinase 2 (Homo sapiens, UniProt P24941).
The target in test [2] is Calcium/calmodulin-dependent protein kinase type 1D (Homo sapiens) (UniProt Q8IU85).
Test [3] concerns the target Dual specificity protein kinase CLK2 (Homo sapiens) (UniProt P49760).
For test [4], the target named is T1, Serine/threonine-protein kinase PLK4 (Homo sapiens) (UniProt O00444).
T1 sequence (whole entry): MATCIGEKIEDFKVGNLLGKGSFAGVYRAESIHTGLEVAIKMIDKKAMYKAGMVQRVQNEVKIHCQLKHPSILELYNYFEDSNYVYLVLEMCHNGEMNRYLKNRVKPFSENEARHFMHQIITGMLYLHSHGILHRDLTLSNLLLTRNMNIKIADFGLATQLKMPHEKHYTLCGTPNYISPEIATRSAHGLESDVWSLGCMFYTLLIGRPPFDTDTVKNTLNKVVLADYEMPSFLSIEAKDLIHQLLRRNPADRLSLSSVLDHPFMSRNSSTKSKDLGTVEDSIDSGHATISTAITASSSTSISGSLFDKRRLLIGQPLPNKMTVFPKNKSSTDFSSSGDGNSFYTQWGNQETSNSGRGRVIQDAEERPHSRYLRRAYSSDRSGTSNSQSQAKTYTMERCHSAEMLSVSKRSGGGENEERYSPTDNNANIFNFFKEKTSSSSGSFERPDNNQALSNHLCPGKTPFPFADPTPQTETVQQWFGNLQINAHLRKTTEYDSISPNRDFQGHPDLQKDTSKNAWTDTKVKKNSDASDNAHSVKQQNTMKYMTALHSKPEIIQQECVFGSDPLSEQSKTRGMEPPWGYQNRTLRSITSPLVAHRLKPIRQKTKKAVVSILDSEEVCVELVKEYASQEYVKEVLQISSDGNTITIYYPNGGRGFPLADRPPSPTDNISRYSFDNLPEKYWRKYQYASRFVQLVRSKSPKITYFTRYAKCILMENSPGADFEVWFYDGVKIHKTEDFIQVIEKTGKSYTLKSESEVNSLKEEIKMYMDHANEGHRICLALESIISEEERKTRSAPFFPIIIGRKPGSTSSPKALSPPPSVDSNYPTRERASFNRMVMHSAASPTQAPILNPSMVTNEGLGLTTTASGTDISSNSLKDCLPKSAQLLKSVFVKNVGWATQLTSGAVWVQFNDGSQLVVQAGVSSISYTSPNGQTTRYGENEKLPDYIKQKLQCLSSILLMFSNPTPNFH

For test [5], the target named is 5'-AMP-activated protein kinase catalytic subunit alpha-2 (Homo sapiens) (UniProt P54646).
Chain of 5'-AMP-activated protein kinase catalytic subunit alpha-2 (Homo sapiens) (P54646 whole entry, looked up): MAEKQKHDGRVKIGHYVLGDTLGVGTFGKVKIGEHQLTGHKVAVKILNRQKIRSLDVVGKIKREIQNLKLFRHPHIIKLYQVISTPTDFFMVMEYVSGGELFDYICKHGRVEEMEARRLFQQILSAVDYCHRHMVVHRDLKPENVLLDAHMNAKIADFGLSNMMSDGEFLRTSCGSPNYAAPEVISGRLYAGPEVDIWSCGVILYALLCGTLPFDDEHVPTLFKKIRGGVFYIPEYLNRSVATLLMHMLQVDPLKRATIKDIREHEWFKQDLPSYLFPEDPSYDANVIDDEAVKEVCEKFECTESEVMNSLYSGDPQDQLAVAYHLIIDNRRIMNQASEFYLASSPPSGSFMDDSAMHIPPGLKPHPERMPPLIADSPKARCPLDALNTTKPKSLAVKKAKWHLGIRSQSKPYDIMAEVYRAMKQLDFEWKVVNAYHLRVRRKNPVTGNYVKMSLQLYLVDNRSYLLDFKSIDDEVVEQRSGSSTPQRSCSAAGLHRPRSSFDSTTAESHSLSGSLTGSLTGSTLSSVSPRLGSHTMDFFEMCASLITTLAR
In test [6] the target is T2, Serine/threonine-protein kinase VRK3 (Homo sapiens) (UniProt Q8IV63).
T2 sequence (whole entry): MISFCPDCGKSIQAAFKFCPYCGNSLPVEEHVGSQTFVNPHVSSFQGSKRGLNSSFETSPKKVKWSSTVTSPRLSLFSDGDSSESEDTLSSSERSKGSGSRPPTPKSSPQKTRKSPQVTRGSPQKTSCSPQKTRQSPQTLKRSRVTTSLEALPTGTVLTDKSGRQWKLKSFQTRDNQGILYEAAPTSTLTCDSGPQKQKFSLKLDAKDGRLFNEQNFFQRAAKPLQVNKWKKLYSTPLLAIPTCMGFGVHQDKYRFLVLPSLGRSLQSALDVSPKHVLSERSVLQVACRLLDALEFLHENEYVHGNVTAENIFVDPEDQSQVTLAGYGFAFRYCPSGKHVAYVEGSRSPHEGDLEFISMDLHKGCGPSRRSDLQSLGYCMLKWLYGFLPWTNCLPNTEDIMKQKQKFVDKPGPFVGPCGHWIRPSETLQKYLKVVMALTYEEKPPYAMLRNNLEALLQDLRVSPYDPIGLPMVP

Test [7] addresses Serine/threonine-protein kinase PAK 5 (Homo sapiens) (UniProt Q9P286).
For test [8], the target named is Serine/threonine-protein kinase OSR1 (Homo sapiens) (UniProt O95747).
Chain of Serine/threonine-protein kinase OSR1 (Homo sapiens) (O95747 2-527 limits assumed): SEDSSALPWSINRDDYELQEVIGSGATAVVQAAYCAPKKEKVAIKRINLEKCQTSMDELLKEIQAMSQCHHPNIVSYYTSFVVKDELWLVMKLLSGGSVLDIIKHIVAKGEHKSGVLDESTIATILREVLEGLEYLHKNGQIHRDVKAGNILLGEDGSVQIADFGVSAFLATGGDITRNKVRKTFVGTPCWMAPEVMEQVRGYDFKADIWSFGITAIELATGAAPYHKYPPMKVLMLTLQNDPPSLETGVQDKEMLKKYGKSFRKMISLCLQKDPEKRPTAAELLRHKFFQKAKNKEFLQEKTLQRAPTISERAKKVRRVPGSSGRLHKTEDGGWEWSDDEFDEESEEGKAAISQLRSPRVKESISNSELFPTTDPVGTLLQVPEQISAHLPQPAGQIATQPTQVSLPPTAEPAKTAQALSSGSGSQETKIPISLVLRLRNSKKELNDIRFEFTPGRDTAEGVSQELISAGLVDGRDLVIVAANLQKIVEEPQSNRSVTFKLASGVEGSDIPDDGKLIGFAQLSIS
Test [9] has as its target Serine/threonine-protein kinase RIO2 (Homo sapiens) (UniProt Q9BVS4).
For test [10], the target named is Serine/threonine-protein kinase 26 (Homo sapiens) (UniProt Q9P289).
Chain of Serine/threonine-protein kinase 26 (Homo sapiens) (Q9P289 2-416 limits assumed): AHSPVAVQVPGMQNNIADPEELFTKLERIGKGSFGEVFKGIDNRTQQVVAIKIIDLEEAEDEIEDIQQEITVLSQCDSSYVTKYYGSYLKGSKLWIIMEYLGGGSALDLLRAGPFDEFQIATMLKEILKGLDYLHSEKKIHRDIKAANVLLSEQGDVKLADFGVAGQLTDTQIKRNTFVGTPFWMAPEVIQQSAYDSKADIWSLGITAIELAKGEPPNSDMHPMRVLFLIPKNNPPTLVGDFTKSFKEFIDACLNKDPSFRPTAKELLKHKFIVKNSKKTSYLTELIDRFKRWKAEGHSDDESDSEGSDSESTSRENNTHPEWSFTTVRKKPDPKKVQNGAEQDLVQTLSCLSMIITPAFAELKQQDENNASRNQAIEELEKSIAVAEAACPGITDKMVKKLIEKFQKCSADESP
Test [11] addresses Serine/threonine-protein kinase 16 (Homo sapiens) (UniProt O75716).
For test [12], the target named is T3, Serine/threonine-protein kinase Nek2 (Homo sapiens) (UniProt P51955).
T3 sequence (whole entry): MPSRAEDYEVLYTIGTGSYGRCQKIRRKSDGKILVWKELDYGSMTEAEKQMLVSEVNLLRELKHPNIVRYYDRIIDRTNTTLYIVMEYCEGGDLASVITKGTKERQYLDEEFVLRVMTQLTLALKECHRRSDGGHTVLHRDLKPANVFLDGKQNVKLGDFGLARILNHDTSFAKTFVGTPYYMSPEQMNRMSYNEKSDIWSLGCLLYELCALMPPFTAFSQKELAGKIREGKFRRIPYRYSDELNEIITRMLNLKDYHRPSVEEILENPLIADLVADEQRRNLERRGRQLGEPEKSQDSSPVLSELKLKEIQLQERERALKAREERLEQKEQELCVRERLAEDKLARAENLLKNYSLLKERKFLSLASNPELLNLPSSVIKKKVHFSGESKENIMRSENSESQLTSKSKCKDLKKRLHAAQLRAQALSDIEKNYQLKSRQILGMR

In test [13] the target is Serine/threonine-protein kinase 25 (Homo sapiens) (UniProt O00506).
Chain of Serine/threonine-protein kinase 25 (Homo sapiens) (O00506 whole entry, looked up): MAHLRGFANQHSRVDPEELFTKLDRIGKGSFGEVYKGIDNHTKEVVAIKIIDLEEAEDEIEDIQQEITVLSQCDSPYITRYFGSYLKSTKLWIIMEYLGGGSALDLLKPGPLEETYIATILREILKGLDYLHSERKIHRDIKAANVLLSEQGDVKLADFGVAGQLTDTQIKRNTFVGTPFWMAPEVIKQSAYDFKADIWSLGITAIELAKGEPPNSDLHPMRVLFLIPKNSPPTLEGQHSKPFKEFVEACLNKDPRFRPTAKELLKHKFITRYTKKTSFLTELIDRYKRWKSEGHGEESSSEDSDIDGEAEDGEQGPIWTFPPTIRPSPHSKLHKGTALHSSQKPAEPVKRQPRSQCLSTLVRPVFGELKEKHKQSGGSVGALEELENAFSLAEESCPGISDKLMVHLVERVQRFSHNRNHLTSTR
Test [14] deals with T4, Dual specificity mitogen-activated protein kinase kinase 6 (Homo sapiens) (UniProt P52564).
T4 sequence (whole entry): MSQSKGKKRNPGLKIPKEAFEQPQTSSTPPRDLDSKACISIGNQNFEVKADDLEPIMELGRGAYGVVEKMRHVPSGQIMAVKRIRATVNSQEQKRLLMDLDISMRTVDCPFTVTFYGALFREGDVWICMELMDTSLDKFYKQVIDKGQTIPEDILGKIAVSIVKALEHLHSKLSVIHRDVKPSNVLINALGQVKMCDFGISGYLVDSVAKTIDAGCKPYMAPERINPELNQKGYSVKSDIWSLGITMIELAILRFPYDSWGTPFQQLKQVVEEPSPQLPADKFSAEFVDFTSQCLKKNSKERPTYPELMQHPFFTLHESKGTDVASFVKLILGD

The target in test [15] is Calcium/calmodulin-dependent protein kinase type 1G (Homo sapiens) (UniProt Q96NX5).
Chain of Calcium/calmodulin-dependent protein kinase type 1G (Homo sapiens) (Q96NX5 whole entry): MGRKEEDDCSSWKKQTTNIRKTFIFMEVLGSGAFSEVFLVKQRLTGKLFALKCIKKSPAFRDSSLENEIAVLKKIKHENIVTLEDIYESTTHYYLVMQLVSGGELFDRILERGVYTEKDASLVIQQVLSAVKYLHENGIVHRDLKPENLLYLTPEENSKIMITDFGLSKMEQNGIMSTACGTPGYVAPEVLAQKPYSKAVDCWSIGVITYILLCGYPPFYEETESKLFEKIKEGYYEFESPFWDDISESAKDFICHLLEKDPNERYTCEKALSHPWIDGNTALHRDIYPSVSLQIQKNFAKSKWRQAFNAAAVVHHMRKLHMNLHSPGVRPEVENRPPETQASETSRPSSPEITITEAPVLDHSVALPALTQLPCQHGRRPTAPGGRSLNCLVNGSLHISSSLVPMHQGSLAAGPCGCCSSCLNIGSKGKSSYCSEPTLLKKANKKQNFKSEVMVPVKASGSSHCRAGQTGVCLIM

The text below walks through data of ChEMBL document CHEMBL1145498, “A systematic interaction map of validated kinase inhibitors with Ser/Thr kinases” (Proc Natl Acad Sci U S A, 2007).

Chain of Serine/threonine-protein kinase RIO2 (Homo sapiens) (Q9BVS4 whole entry, looked up): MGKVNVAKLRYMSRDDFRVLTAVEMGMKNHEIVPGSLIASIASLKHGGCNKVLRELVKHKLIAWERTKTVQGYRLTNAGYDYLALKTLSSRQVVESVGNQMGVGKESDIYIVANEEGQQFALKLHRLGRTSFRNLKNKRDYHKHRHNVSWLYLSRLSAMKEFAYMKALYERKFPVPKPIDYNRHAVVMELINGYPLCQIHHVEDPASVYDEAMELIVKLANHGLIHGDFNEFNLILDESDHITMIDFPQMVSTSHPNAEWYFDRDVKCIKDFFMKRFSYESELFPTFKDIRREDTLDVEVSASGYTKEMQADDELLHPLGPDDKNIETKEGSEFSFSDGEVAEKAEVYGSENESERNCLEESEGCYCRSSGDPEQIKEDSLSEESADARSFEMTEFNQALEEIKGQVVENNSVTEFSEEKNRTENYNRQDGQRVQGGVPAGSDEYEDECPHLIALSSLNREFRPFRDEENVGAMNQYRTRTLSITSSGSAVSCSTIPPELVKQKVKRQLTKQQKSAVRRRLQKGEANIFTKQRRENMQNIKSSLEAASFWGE
Chain of Calcium/calmodulin-dependent protein kinase type 1D (Homo sapiens) (Q8IU85 whole entry, looked up): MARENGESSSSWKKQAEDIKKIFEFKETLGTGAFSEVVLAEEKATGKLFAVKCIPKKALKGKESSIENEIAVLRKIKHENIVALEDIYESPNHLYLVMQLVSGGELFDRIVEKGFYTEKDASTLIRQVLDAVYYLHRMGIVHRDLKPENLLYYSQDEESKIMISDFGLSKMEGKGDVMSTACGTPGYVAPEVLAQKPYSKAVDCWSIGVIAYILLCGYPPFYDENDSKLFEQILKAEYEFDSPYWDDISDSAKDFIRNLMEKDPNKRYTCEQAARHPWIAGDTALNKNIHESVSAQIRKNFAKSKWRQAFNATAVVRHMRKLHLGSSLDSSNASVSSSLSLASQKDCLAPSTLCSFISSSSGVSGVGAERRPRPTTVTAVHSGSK
Chain of Dual specificity protein kinase CLK2 (Homo sapiens) (P49760 whole entry, looked up): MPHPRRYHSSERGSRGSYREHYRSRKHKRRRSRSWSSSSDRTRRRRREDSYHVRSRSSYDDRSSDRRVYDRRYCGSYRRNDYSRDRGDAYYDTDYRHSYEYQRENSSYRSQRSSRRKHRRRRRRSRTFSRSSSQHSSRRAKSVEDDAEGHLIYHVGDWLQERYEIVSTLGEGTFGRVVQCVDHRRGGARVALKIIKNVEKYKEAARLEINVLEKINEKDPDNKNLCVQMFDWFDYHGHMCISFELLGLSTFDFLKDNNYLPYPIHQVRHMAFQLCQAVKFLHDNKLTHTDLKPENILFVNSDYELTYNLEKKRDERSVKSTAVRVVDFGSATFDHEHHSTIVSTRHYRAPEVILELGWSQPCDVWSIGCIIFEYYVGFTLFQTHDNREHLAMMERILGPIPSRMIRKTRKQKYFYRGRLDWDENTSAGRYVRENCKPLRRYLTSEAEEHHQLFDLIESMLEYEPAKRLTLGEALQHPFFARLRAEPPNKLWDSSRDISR
Chain of Serine/threonine-protein kinase 16 (Homo sapiens) (O75716 whole entry): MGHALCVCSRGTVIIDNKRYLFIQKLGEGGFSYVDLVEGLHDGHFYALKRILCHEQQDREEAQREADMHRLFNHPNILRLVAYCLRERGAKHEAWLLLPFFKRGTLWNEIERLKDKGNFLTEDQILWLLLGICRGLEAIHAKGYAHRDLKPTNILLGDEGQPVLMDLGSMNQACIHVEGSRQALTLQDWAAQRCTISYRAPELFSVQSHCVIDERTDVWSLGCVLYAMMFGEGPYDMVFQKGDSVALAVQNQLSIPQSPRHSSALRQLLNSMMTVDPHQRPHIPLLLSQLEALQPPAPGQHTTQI
Chain of Serine/threonine-protein kinase PAK 5 (Homo sapiens) (Q9P286 whole entry, looked up): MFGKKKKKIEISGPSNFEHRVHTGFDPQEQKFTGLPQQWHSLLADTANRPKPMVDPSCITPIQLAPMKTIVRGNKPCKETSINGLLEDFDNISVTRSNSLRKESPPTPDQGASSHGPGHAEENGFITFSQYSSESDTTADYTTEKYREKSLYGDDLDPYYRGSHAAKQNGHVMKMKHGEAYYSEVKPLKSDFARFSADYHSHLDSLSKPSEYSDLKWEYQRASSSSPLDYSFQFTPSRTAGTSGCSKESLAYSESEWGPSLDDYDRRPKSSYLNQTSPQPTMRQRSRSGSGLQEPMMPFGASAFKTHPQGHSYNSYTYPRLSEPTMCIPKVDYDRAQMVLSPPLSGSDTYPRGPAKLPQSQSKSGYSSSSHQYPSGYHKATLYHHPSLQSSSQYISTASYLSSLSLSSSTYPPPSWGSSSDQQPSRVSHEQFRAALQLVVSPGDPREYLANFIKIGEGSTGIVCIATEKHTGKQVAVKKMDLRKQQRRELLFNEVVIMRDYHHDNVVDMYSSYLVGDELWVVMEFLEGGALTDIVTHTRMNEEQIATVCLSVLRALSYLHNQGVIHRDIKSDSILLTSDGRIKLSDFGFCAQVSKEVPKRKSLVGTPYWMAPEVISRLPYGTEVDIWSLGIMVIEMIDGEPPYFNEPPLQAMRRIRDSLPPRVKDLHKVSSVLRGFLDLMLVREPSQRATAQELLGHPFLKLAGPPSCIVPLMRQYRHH

A word on the ΔTm: it is the shift of the melting midpoint relative to a reference. Consider `Nc1cc2ncnc(Nc3cccc(Br)c3)c2cc1N`, for which the ΔTm was 1.4 °C in test [1]; 0.6 °C in test [2]; 1.6 °C in test [3]; 1.5 °C in [4]; -0.9 °C in [5]; 0 °C in test [6]. For the same compound, the ΔTm came to 0.2 °C in [7]; 1 °C in test [8]; 3.4 °C in test [9]; 3.6 °C in test [10]; 0.1 °C in [11]; 3.3 °C in test [12]. Also, the ΔTm in [13] turned out to be 2.5 °C; in test [14], 0.7 °C; in test [15] it was 0.5 °C.
Take `C[C@@H](N)[C@H]1CC[C@H](C(=O)Nc2ccncc2)CC1`: the ΔTm is 0.5 °C in [1]; 0.6 °C in test [2]; 0.2 °C in test [3]; 0.3 °C in test [4]; 0.5 °C in test [5]; 0.2 °C in [6]. Also, the ΔTm was 0.1 °C in [7]; -0.4 °C in test [8]; 0.3 °C in [9]; 0.2 °C in [10]; 0.6 °C in [11]; -0.1 °C in [12]. In addition, the values for the ΔTm in [13], in [14] and in test [15] were 0 °C, -0.1 °C and -0.3 °C, respectively.
Take `O=C1Nc2ccccc2/C1=C1/Nc2ccccc2/C1=N\O`: the ΔTm came to 9.1 °C in test [1]; 2.2 °C in test [2]; 7.8 °C in [3]; 10.9 °C in [4]; 6.6 °C in test [5]; 2.3 °C in test [6]. Moreover, the shift in melting temperature (ΔTm) was found to be 3.3 °C in test [7]; 3.1 °C in [8]; 5.7 °C in test [9]; 4.4 °C in test [10]; 11.7 °C in [11]; 2.8 °C in [12]. Further, the figures for the ΔTm in [13], in test [14] and in test [15] were 4.9 °C, 6.4 °C and 3.1 °C, respectively.
As for `O=Nc1c(-c2c(O)[nH]c3ccccc23)[nH]c2ccccc12`, the ΔTm was 6.6 °C in test [1]; 1.1 °C in test [2]; 1.5 °C in [3]; 8.9 °C in [4]; 4.5 °C in [5]; -0.8 °C in [6]. For the same compound, the ΔTm came out at 2.6 °C in [7]; 1.7 °C in test [8]; 2.6 °C in [9]; 2.5 °C in test [10]; 5.1 °C in [11]; 2.5 °C in test [12]. For the same compound, the ΔTm in [13] is 3.8 °C; in [14] it was 3.6 °C; in test [15] it was 1.1 °C.
Consider `CC(C)n1cnc2c(NCc3ccccc3O)nc(NCCCO)nc21`, for which the ΔTm in test [1] is 1.2 °C; in test [2] it was 0 °C; in test [3], 1 °C; in test [4] it was 0.1 °C; in test [5] it was 0.2 °C; in test [6], 0.1 °C. Further, the ΔTm in test [7] is 0.2 °C; in [8] it was 0.3 °C; in test [9], -0.1 °C; in test [10], 0.4 °C; in test [11] it was 1.2 °C; in test [12] it was 0.3 °C. Further, the figures for the ΔTm in [13], in test [14] and in test [15] were 0.3 °C, 0.1 °C and 0.1 °C, respectively.
Regarding `CCOc1cc(/C=C(\C#N)C(N)=O)cc(CSc2ccccc2)c1O`, the ΔTm in test [1] was 0.8 °C; in test [2], -0.2 °C; in test [3] it was 0.2 °C; in [4], 2.8 °C; in [5] it was 0 °C; in test [6], -0.6 °C. Further, the thermal shift (ΔTm) in [7] was 0 °C; in test [8] it was 0.9 °C; in test [9], 0.1 °C; in test [10] it was -0.3 °C; in test [11] it was 1 °C; in [12] it was 0.3 °C. In addition, the values for the ΔTm in [13], in test [14] and in [15] were 0.6 °C, 1.6 °C and 0 °C, respectively.
Turning to `CC(C)n1cnc2c(NCc3ccccc3)nc(NCCCO)nc21`, the ΔTm is 0.9 °C in [1]; 0.1 °C in test [2]; 2.2 °C in test [3]; 0.3 °C in test [4]; -0.7 °C in test [5]; -0.3 °C in [6]. The ΔTm in test [7] was 0.4 °C; in test [8], 0.3 °C; in [9], 0.4 °C; in test [10] it was -0.3 °C; in [11], 0.6 °C; in [12], 0.9 °C. Also, the ΔTm was 0.1 °C in test [13], 0 °C in [14] and 0.2 °C in test [15].
As to `O=S(=O)(NCCNC/C=C/c1ccc(Br)cc1)c1cccc2cnccc12`, the ΔTm is -0.5 °C in test [1]; -0.1 °C in [2]; 0.7 °C in test [3]; 1.1 °C in [4]; 0.9 °C in test [5]; 0.2 °C in test [6]. For the same compound, the ΔTm is 1.2 °C in test [7]; 0.9 °C in [8]; 0 °C in test [9]; 1.2 °C in test [10]; 0.5 °C in [11]; -0.2 °C in test [12]. Also, the figures for the ΔTm in [13], in test [14] and in test [15] were 1 °C, 0 °C and 0 °C, respectively.
For the compound `CC(C)(C)c1nc2c3ccc(F)cc3c3c(=O)[nH]ccc3c2[nH]1`, the ΔTm in test [1] stood at 1.2 °C; in test [2] it was 3.6 °C; in test [3], 3.6 °C; in [4] it was 11.8 °C; in test [5], 6.4 °C; in test [6] it was 0.2 °C. For the same compound, the ΔTm was 2.1 °C in [7]; 3 °C in [8]; 0.7 °C in test [9]; 4.1 °C in test [10]; 3.5 °C in [11]; 0.7 °C in test [12]. Moreover, the figures for the ΔTm in test [13], in test [14] and in test [15] were 2.9 °C, 6 °C and 1.9 °C, respectively.
